ChEMBL document CHEMBL1212738, “Phenotypic and genotypic characterization of Enterobacteriaceae with decreased susceptibility to carbapenems: results from large hospital-based surveillance studies in China” (2010)
≈ marks a conversion by molar mass, not a printed value.

Experiments:
[1] = system: Klebsiella pneumoniae; experiment: Antimicrobial activity against carbapenem-resistant Klebsiella pneumoniae ZJ69 deficient in SHV-28, ompK35/36 by CLSI method; format: functional
[2] = system: Klebsiella pneumoniae; experiment: Antimicrobial activity against carbapenem-resistant Klebsiella pneumoniae GZ83 deficient in SHV-11, CTX-M-14, ompK35/36 by CLSI method; format: functional
[3] = system: Klebsiella pneumoniae; experiment: Antimicrobial activity against carbapenem-resistant Klebsiella pneumoniae PU104 deficient in TEM-1, SHV-11, CTX-M-15, qnrS1, ompK35/36 by CLSI method; format: functional
[4] = system: Escherichia coli; experiment: Antimicrobial activity against carbapenem-resistant Escherichia coli PU60 deficient in TEM-1, CMY-2, ompC/F by CLSI method; format: functional
[5] = system: Escherichia coli; experiment: Antimicrobial activity against carbapenem-resistant Escherichia coli PU96 deficient in TEM-1, CTX-M-14, CMY-2, ompC/F by CLSI method; format: functional
[6] = system: Escherichia coli; experiment: Antimicrobial activity against carbapenem-resistant Escherichia coli PU102 deficient in TEM-1, CTX-M-14, CMY-2, aac(6')-Ib, ompC DEc, ompF by CLSI method; format: functional
[7] = system: Klebsiella aerogenes; experiment: Antimicrobial activity against carbapenem-resistant Enterobacter aerogenes PU41 deficient in CTX-M-14, DHA-1, qnrS1, ompC DEc, ompF by CLSI method; format: functional
[8] = system: Escherichia coli; experiment: Antimicrobial activity against carbapenem-resistant Escherichia coli PU43 deficient in TEM-1, CTX-M-14, aac(6')-Ib, ompC/F by CLSI method; format: functional
[9] = system: Escherichia coli; experiment: Antimicrobial activity against Escherichia coli HX74T expressing CTX-M-3 by CLSI method; format: functional
[10] = system: Enterobacter cloacae; experiment: Antimicrobial activity against carbapenem-resistant Enterobacter cloacae GX56 deficient in ompC and expressing low levels of ompF DE by CLSI method; format: functional
[11] = system: Klebsiella pneumoniae; experiment: Antimicrobial activity against Klebsiella pneumoniae WH97 expressing SHV-33, aac(6')-Ib, ompK35 DE by CLSI method; format: functional
[12] = system: Enterobacter cloacae; experiment: Antimicrobial activity against carbapenem-resistant Enterobacter cloacae SZ93 deficient in ompC by CLSI method; format: functional
[13] = system: Klebsiella pneumoniae; experiment: Antimicrobial activity against carbapenem-resistant Klebsiella pneumoniae ZJ70 deficient in KPC-2, SHV-11, CTX-M-14, ompK35/36 by CLSI method; format: functional
[14] = system: Klebsiella pneumoniae; experiment: Antimicrobial activity against carbapenem-resistant Klebsiella pneumoniae ZJ71 deficient in KPC-2, TEM-1, SHV-11, CTX-M-14, ompK35 by CLSI method; format: functional
[15] = system: Klebsiella pneumoniae; experiment: Antimicrobial activity against Klebsiella pneumoniae ZJ99T expressing KPC-2, CTX-M-3, qnrS1 by CLSI method; format: functional
[16] = system: Klebsiella pneumoniae; experiment: Antimicrobial activity against carbapenem-resistant Klebsiella pneumoniae FZ47 deficient in IMP-8, TEM-1, SHV-11, CTX-M-14, qnrB2, aac(6')-Ib, ompK35/36 by CLSI method; format: functional
[17] = system: Klebsiella pneumoniae; experiment: Antimicrobial activity against Klebsiella pneumoniae FZ49T expressing IMP-8, TEM-1, CTX-M-14, qnrB2, aac(6')-Ib by CLSI method; format: functional
[18] = system: Klebsiella pneumoniae; experiment: Antimicrobial activity against Klebsiella pneumoniae GZ64T expressing IMP-4 by CLSI method; format: functional
[19] = system: Klebsiella pneumoniae; experiment: Antimicrobial activity against Klebsiella pneumoniae WH76 expressing IMP-4, TEM-1, SHV-14, CTX-M-3, qnrS1 by CLSI method; format: functional
[20] = system: Citrobacter freundii; experiment: Antimicrobial activity against Citrobacter freundii SZ62 expressing IMP-4, TEM-1, CMY-2, qnrS1, aac(6')-Ib-cr by CLSI method; format: functional
[21] = system: Citrobacter freundii; experiment: Antimicrobial activity against Citrobacter freundii SZ63 expressing IMP-4, qnrS1by CLSI method; format: functional
[22] = system: Citrobacter freundii; experiment: Antimicrobial activity against Citrobacter freundii SZ63T expressing IMP-4, qnrS1by CLSI method; format: functional
[23] = system: Enterobacter cloacae; experiment: Antimicrobial activity against carbapenem-resistant Enterobacter cloacae RJ94 deficient in IMP-4, TEM-1, CTX-M-3, ompC by CLSI method; format: functional
[24] = system: Enterobacter cloacae; experiment: Antimicrobial activity against carbapenem-resistant Enterobacter cloacae WH103 deficient in IMP-4, TEM-1, CTX-M-3, qnrS1, ompC by CLSI method; format: functional
[25] = system: Klebsiella pneumoniae; experiment: Antimicrobial activity against carbapenem-resistant Klebsiella pneumoniae PU3 deficient in DHA-1, aac(6')-Ib-cr, ompK35/36 by CLSI method; format: functional
[26] = system: Klebsiella pneumoniae; experiment: Antimicrobial activity against carbapenem-resistant Klebsiella pneumoniae PU4 deficient in SHV-1, DHA-1, ompK35/36 by CLSI method; format: functional
[27] = system: Klebsiella pneumoniae; experiment: Antimicrobial activity against carbapenem-resistant Klebsiella pneumoniae GZ66 deficient in SHV-11, DHA-1, ompK35/36 by CLSI method; format: functional
[28] = system: Klebsiella pneumoniae; experiment: Antimicrobial activity against carbapenem-resistant Klebsiella pneumoniae SX67 deficient in SHV-2, CTX-M-14, DHA-1, qnrB6/S1, aac(6')-Ib-cr, ompK35/36 by CLSI method; format: functional
[29] = system: Klebsiella pneumoniae; experiment: Antimicrobial activity against carbapenem-resistant Klebsiella pneumoniae PU105 deficient TEM-1, SHV-12, CTX-M-14, DHA-1, qnrB10/B4-like, aac(6')-Ib-cr, ompK35/36 by CLSI method; format: functional
[30] = system: Escherichia coli; experiment: Antimicrobial activity against Escherichia coli C600 transconjugant SZ62T expressing IMP-4, qnrS1by CLSI method
[31] = system: Klebsiella pneumoniae; experiment: Antimicrobial activity against carbapenem-resistant Klebsiella pneumoniae ZJ68 deficient in CTX-M-15, ompK35/36 by CLSI method

## CO/N=C(\C(=O)N[C@@H]1C(=O)N2C(C(=O)O)=C(COC(C)=O)CS[C@H]12)c1csc(N)n1 [CEFOTAXIME]
[1]
  MIC: 64 µg/mL (≈ 141 µM)
[2]
  MIC: > 256 µg/mL
[3]
  MIC: > 256 µg/mL
[4]
  MIC: 256 µg/mL (≈ 562 µM)
[5]
  MIC: > 256 µg/mL
[6]
  MIC: > 256 µg/mL
[7]
  MIC: > 256 µg/mL
[8]
  MIC: > 256 µg/mL
[9]
  MIC: > 256 µg/mL
[10]
  MIC: > 256 µg/mL
[11]
  MIC: 128 µg/mL (≈ 281 µM)
[12]
  MIC: 1 µg/mL (≈ 2.2 µM)
[13]
  MIC: > 256 µg/mL
[14]
  MIC: 256 µg/mL (≈ 562 µM)
[15]
  MIC: 256 µg/mL (≈ 562 µM)
[16]
  MIC: 256 µg/mL (≈ 562 µM)
[17]
  MIC: 128 µg/mL (≈ 281 µM)
[18]
  MIC: 128 µg/mL (≈ 281 µM)
[19]
  MIC: 128 µg/mL (≈ 281 µM)
[20]
  MIC: 256 µg/mL (≈ 562 µM)
[21]
  MIC: > 256 µg/mL
[22]
  MIC: 256 µg/mL (≈ 562 µM)
[23]
  MIC: > 256 µg/mL
[24]
  MIC: > 256 µg/mL
[25]
  MIC: 128 µg/mL (≈ 281 µM)
[26]
  MIC: 16 µg/mL (≈ 35.1 µM)
[27]
  MIC: 128 µg/mL (≈ 281 µM)
[28]
  MIC: > 256 µg/mL
[29]
  MIC: > 256 µg/mL
[30]
  MIC: 128 µg/mL (≈ 281 µM)
[31]
  MIC: > 256 µg/mL

## CO[C@@]1(NC(=O)Cc2cccs2)C(=O)N2C(C(=O)O)=C(COC(N)=O)CS[C@@H]21 [CEFOXITIN]
[1]
  MIC: > 256 µg/mL
[2]
  MIC: > 256 µg/mL
[3]
  MIC: 256 µg/mL (≈ 599 µM)
[4]
  MIC: > 256 µg/mL
[5]
  MIC: > 256 µg/mL
[6]
  MIC: > 256 µg/mL
[7]
  MIC: > 256 µg/mL
[8]
  MIC: 128 µg/mL (≈ 299 µM)
[9]
  MIC: 16 µg/mL (≈ 37.4 µM)
[10]
  MIC: > 256 µg/mL
[11]
  MIC: > 256 µg/mL
[12]
  MIC: > 256 µg/mL
[13]
  MIC: 128 µg/mL (≈ 299 µM)
[14]
  MIC: 16 µg/mL (≈ 37.4 µM)
[15]
  MIC: 32 µg/mL (≈ 74.9 µM)
[16]
  MIC: > 256 µg/mL
[17]
  MIC: > 256 µg/mL
[18]
  MIC: 256 µg/mL (≈ 599 µM)
[19]
  MIC: > 256 µg/mL
[20]
  MIC: > 256 µg/mL
[21]
  MIC: > 256 µg/mL
[22]
  MIC: > 256 µg/mL
[23]
  MIC: > 256 µg/mL
[24]
  MIC: > 256 µg/mL
[25]
  MIC: > 256 µg/mL
[26]
  MIC: > 256 µg/mL
[27]
  MIC: > 256 µg/mL
[28]
  MIC: > 256 µg/mL
[29]
  MIC: > 256 µg/mL
[30]
  MIC: > 256 µg/mL
[31]
  MIC: 32 µg/mL (≈ 74.9 µM)

## CC(C)(O/N=C(\C(=O)N[C@@H]1C(=O)N2C(C(=O)[O-])=C(C[n+]3ccccc3)CS[C@H]12)c1csc(N)n1)C(=O)O [CEFTAZIDIME]
[1]
  MIC: 128 µg/mL (≈ 234 µM)
[2]
  MIC: > 256 µg/mL
[3]
  MIC: > 256 µg/mL
[4]
  MIC: 256 µg/mL (≈ 468 µM)
[5]
  MIC: > 256 µg/mL
[6]
  MIC: 64 µg/mL (≈ 117 µM)
[7]
  MIC: 64 µg/mL (≈ 117 µM)
[8]
  MIC: 32 µg/mL (≈ 58.5 µM)
[9]
  MIC: 256 µg/mL (≈ 468 µM)
[10]
  MIC: 256 µg/mL (≈ 468 µM)
[11]
  MIC: > 256 µg/mL
[12]
  MIC: 0.5 µg/mL (≈ 0.915 µM)
[13]
  MIC: 64 µg/mL (≈ 117 µM)
[14]
  MIC: 32 µg/mL (≈ 58.5 µM)
[15]
  MIC: 128 µg/mL (≈ 234 µM)
[16]
  MIC: > 256 µg/mL
[17]
  MIC: > 256 µg/mL
[18]
  MIC: 256 µg/mL (≈ 468 µM)
[19]
  MIC: 256 µg/mL (≈ 468 µM)
[20]
  MIC: > 256 µg/mL
[21]
  MIC: > 256 µg/mL
[22]
  MIC: > 256 µg/mL
[23]
  MIC: > 256 µg/mL
[24]
  MIC: > 256 µg/mL
[25]
  MIC: 128 µg/mL (≈ 234 µM)
[26]
  MIC: 64 µg/mL (≈ 117 µM)
[27]
  MIC: > 256 µg/mL
[28]
  MIC: > 256 µg/mL
[29]
  MIC: > 256 µg/mL
[30]
  MIC: > 256 µg/mL
[31]
  MIC: 256 µg/mL (≈ 468 µM)
